Assay: HILIC, Waters ACQUITY UPLC BEH HILIC, 150 × 2.1 mm, 1.7 µm, 40 °C, 0.6 mL/min, estimated dead time 0.55 min; A: water + 0.1% formic acid + 20 mM ammonium formate, pH 3.5; B: acetonitrile + 0.1% formic acid, pH 3; gradient (min/%B) 0/95 0.1/95 4.6/80 5.5/50 7.0/50 7.1/95 7.2/95 7.3/95 7.4/95 7.5/95 7.6/95 7.7/95 7.8/95 12.50/95 12.65/95
Details: stereoisomer not certain

Row | LC retention time [min] | SMILES
1 | 4.59 | CN1CCCCC1C(=O)O (stereo not given)
2 | 3.42 | CN(C)C(=N)N=C(N)N [1,1-Dimethylbiguanide (Metformin)]
3 | 4.1 | Cn1cnc2c(ncn2C2OC(CO)C(O)C2O)c1=N (stereo not given) [1-Methyladenosine]
4 | 1.73 | Cn1c(N)nc2c(ncn2C2OC(CO)C(O)C2O)c1=O (stereo not given) [1-Methylguanosine]
5 | 6.35 | Cn1cnc(CC(N)C(=O)O)c1 (stereo not given) [1-Methylhistidine]
6 | 4.08 | C[n+]1cccc(C(N)=O)c1 [1-Methylnicotinamide]
7 | 4.2 | CCCCCC=CC(=O)OC(CC(=O)[O-])C[N+](C)(C)C (stereo not given) [2-Octenoylcarnitine CAR(8:1)]
8 | 4.39 | CCC(C)C(=O)OC(CC(=O)[O-])C[N+](C)(C)C (stereo not given) [2-methylbutyrylcarnitine]
9 | 0.69 | Nc1c(O)cccc1C(=O)O [3-Hydroxyanthranilic acid]
10 | 5.4 | CC(O)CC(=O)OC(CC(=O)[O-])C[N+](C)(C)C (stereo not given) [3-Hydroxybutyrylcarnitine CAR(4:0-OH)]
11 | 6.09 | Cn1cncc1CC(N)C(=O)O (stereo not given) [3-Methylhistidine]
12 | 3.84 | NC(N)=NCCCC(=O)O [4-Guanidinobutanoic acid]
13 | 4.91 | C[N+](C)(C)CCCC(=O)[O-] [4-Trimethylammoniobutanoic acid (deoxycarnitine)]
14 | 1.3 | CSCC1OC(n2cnc3c(N)ncnc32)C(O)C1O (stereo not given) [5'-Methylthioadenosine]
15 | 2.19 | Cn1cnc2nc(N)[nH]c(=O)c21 [7-Methylguanine]
16 | 1.97 | Cn1c[n+](C2OC(CO)C(O)C2O)c2nc(N)[nH]c(=O)c21 (stereo not given) [7-Methylguanosine]
17 | 0.71 | CC(=O)Nc1ccc(O)cc1 [Acetaminophen]
18 | 1.75 | Nc1ncnc2c1ncn2C1OC(CO)C(O)C1O (stereo not given) [Adenosine]
19 | 4.57 | CC(N)C(=O)O (stereo not given) [Alanine]
20 | 6.1 | Cn1cncc1CC(NC(=O)CCN)C(=O)O (stereo not given) [Anserine]
21 | 5.92 | NC(N)=NCCCC(N)C(=O)O (stereo not given) [Arginine]
22 | 5.91 | CN(C)C(N)=NCCC[C@H](N)C(=O)O [Asymmetric Dimethylarginine]
23 | 4.45 | C[N+](C)(C)CC(CC(=O)[O-])OC(=O)c1ccccc1 (stereo not given) [Benzoylcarnitine]

Row | LC retention time [min] | SMILES
24 | 4.78 | C[N+](C)(C)CC(=O)[O-] [Betaine]
25 | 0.732 | C=CC1=C(C)C(C=c2[nH]c(=Cc3[nH]c(C=C4NC(=O)C(C)=C4C=C)c(C)c3CCC(=O)O)c(CCC(=O)O)c2C)=NC1=O [Biliverdin]
26 | 4.69 | CCCC(=O)OC(CC(=O)[O-])C[N+](C)(C)C (stereo not given) [Butyrylcarnitine]
27 | 0.85 | Cn1c(=O)c2c(ncn2C)n(C)c1=O [Caffeine]
28 | 5.32 | C[N+](C)(C)CC(O)CC(=O)[O-] (stereo not given) [Carnitine]
29 | 6.01 | NCCC(=O)NC(Cc1cnc[nH]1)C(=O)O (stereo not given) [Carnosine]
30 | 3.97 | C[N+](C)(C)CCO [Choline]
31 | 5.74 | NC(=O)NCCCC(N)C(=O)O (stereo not given) [Citrulline]
32 | 0.71 | CC12CCC(=O)C=C1CCC1C2C(O)CC2(C)C1CCC2(O)C(=O)CO (stereo not given) [Cortisol]
33 | 2.87 | CN1C(=O)CCC1c1ccc[n+]([O-])c1 (stereo not given) [Cotinine N-oxide]
34 | 1.4 | CN1C(=O)CCC1c1cccnc1 (stereo not given) [Cotinine]
35 | 5.06 | CN(CC(=O)O)C(=N)N [Creatine]
36 | 2.51 | CN1CC(=O)NC1=N [Creatinine]
37 | 2.39 | Nc1ccnc(=O)[nH]1 [Cytosine]
38 | 3.92 | CCCCCCCCCC(=O)OC(CC(=O)[O-])C[N+](C)(C)C (stereo not given) [Decanoylcarnitine CAR(10:0)]
39 | 5.06 | NC(=O)CCC(N)C(=O)O (stereo not given) [Glutamine]
40 | 5.1 | C[N+](C)(C)CC(CC(=O)[O-])OC(=O)CCCC(=O)O (stereo not given) [Glutarylcarnitine CAR(5:0-DC)]
41 | 2.87 | CC(CCC(=O)NCC(=O)O)C1CCC2C3C(O)CC4CC(O)CCC4(C)C3CC(O)C12C (stereo not given) [Glycocholic Acid]
42 | 1.96 | CC(CCC(=O)NCC(=O)O)C1CCC2C3CCC4CC(O)CCC4(C)C3CC(O)C12C (stereo not given) [Glycodeoxycholic acid]
43 | 1.22 | CC(CCC(=O)NCC(=O)O)C1CCC2C3CCC4CC(O)CCC4(C)C3CCC12C (stereo not given) [Glycolithocholic acid]
44 | 1.85 | CC(CCC(=O)NCC(=O)O)C1CCC2C3C(O)CC4CC(O)CCC4(C)C3CCC12C (stereo not given) [Glycoursodeoxycholic acid]
45 | 2.17 | Nc1nc2nc[nH]c2c(=O)[nH]1 [Guanine]
46 | 4.34 | CCCCCC(=O)OC(CC(=O)[O-])C[N+](C)(C)C (stereo not given) [Hexanoylcarnitine CAR(6:0)]

Row | LC retention time [min] | SMILES
47 | 1.16 | O=C(O)CNC(=O)c1ccccc1 [Hippuric acid]
48 | 6.15 | NC(Cc1cnc[nH]1)C(=O)O (stereo not given) [Histidine]
49 | 5.92 | NC(N)=NCCCCC(N)C(=O)O (stereo not given) [Homoarginine]
50 | 1.59 | O=c1[nH]cnc2nc[nH]c12 [Hypoxanthine]
51 | 3.76 | O=C(O)CCc1cnc[nH]1 [Imidazolepropionic acid]
52 | 1.61 | O=c1[nH]cnc2c1ncn2C1OC(CO)C(O)C1O (stereo not given) [Inosine]
53 | 4.69 | CC(C)C(=O)OC(CC(=O)[O-])C[N+](C)(C)C (stereo not given) [Isobutyrylcarnitine]
54 | 4.39 | CC(C)CC(=O)OC(CC(=O)[O-])C[N+](C)(C)C (stereo not given) [Isovalerylcarnitine]
55 | 5.03 | CC(=O)OC(CC(=O)[O-])C[N+](C)(C)C [L-Acetylcarnitine CAR(2:0)]
56 | 5.4 | O=C(O)[C@@H]1CCCN1C(=O)[C@@H]1CCCN1 [L-prolyl-L-proline]
57 | 3.97 | CCCCCCCCCCCC(=O)OC(CC(=O)[O-])C[N+](C)(C)C (stereo not given) [Lauroylcarnitine CAR(12:0)]
58 | 5.98 | NCCCCC(N)C(=O)O (stereo not given) [Lysine]
59 | 4.11 | CSCCC(N)C(=O)O (stereo not given) [Methionine]
60 | 6.1 | CC(=O)NCCCNCCCCNCCCNC(C)=O [N1,N12-Diacetylspermine]
61 | 5.99 | CC(=O)NCCCNCCCCN [N1-Acetylspermidine]
62 | 1.44 | Cn1cnc2c(ncn2C2OC(CO)C(O)C2O)c1=O (stereo not given) [N1-Methylinosine]
63 | 1.24 | Cn1cc(C(N)=O)ccc1=O [N1-methyl-2-pyridone-5-carboxamide]
64 | 1.5 | Cn1ccc(=O)c(C(N)=O)c1 [N1-methyl-4-pyridone-3-carboxamide]
65 | 1.9 | CN(C)c1nc2c(ncn2C2OC(CO)C(O)C2O)c(=O)[nH]1 (stereo not given) [N2,N2-Dimethylguanosine]
66 | 1.27 | CC(=O)Nc1ccn(C2OC(CO)C(O)C2O)c(=O)n1 (stereo not given) [N4-Acetylcytidine]
67 | 6.16 | C[N+](C)(C)CCCCC(N)C(=O)[O-] [N6,N6,N6-Trimethyl-L-lysine]
68 | 5.44 | CC(=O)NCCCC[C@H](N)C(=O)O [N6-Acetyl-L-lysine]
69 | 1.43 | CNc1ncnc2c1ncn2C1OC(CO)C(O)C1O (stereo not given) [N6-Methyladenosine]

Row | LC retention time [min] | SMILES
70 | 4.64 | CN(C)CC(=O)O [N,N-Dimethylglycine]
71 | 1.81 | CC(=O)N[C@@H]1C(O)O[C@H](CO)[C@@H](O)[C@@H]1O (stereo partly drawn) [N-Acetyl-D-mannosamine]
72 | 1.83 | CC(=O)NCCCN1CCCC1=O [N-Acetylisoputreanine-gamma-lactam]
73 | 4.93 | CC(=O)NCCCNCCCC(=O)O [N-Acetylisoputreanine]
74 | 4.4 | CC(=O)NCCCCN [N-Acetylputrescine]
75 | 3.82 | C[n+]1ccccc1 [N-Methylpyridinium]
76 | 5.44 | CC(=O)NC(CCCCN)C(=O)O [N-alpha-acetyl-L-lysine]
77 | 4.48 | CN1CCCC1C(=O)O (stereo not given) [N-methylproline]
78 | 2.32 | Nc1nc2ncc(C(O)C(O)CO)nc2c(=O)[nH]1 (stereo not given) [Neopterin]
79 | 1.07 | NC(=O)c1cccnc1 [Niacinamide]
80 | 2.02 | NC(=O)c1ccc[n+]([O-])c1 [Nicotinamide N-oxide]
81 | 4.14 | CN1CCCC1c1cccnc1 (stereo not given) [Nicotine]
82 | 3.2 | NC(Cc1ccc(OS(=O)(=O)O)cc1)C(=O)O (stereo not given) [O-Sulfotyrosine]
83 | 4.13 | CCCCCCCC(=O)OC(CC(=O)[O-])C[N+](C)(C)C (stereo not given) [Octanoylcarnitine CAR(C8:0)]
84 | 3.78 | CCCCCCCCCCCCCCCC(=O)OC(CC(=O)[O-])C[N+](C)(C)C (stereo not given) [Palmitoylcarnitine CAR(C16:0)]
85 | 1.13 | CC(C)(CO)C(O)C(=O)NCCC(=O)O (stereo not given) [Pantothenic acid]
86 | 0.948 | Cn1c(=O)[nH]c2ncn(C)c2c1=O [Paraxanthine]
87 | 4.47 | C[N+](C)(C)CC(O)(CC(=O)[O-])C(=O)Cc1ccccc1 (stereo not given) [Phenylacetyl carnitine]
88 | 3.78 | NC(Cc1ccccc1)C(=O)O (stereo not given) [Phenylalanine]
89 | 4.48 | O=C(O)C1CCCCN1 (stereo not given) [Pipecolic acid]
90 | 4.91 | C[N+]1(C)CCCC1C(=O)[O-] (stereo not given) [Proline Betaine]

Row | SMILES | LC retention time [min]
91 | NCCc1ccc(O)c(OS(=O)(=O)O)c1 [Dopamine-3-O-sulfate] | 1.07
92 | NCCc1ccc(OS(=O)(=O)O)c(O)c1 [Dopamine-4-O-sulfate] | 1.07
93 | O=C1CCC(c2cccnc2)N1 (stereo not given) [Norcotinine] | 1.6
94 | c1cncc(C2CCCN2)c1 (stereo not given) [Nornicotine] | 4.22
95 | NCCc1ccccc1 [Phenylethylamine] | 2.91
